# Experimental data: patent US20160206610A1, “METHODS FOR TREATING AND/OR PREVENTING EMESIS AND/OR NAUSEA INCLUDING ACUTE AND/OR DELAYED NAUSEA AND/OR ACUTE EMESIS AND/OR DELAYED EMESIS” (priority 2015, published 2016)
# Assay: Fine particle fraction by Next Generation Impactor at 15 LPM (nebulizer solution)
# Type: physicochemical
# Settings: Example 6: nebulizer solution, 0.125% w/w palonosetron chloride in sodium chloride/citrate buffer
# Excerpt: For a nebulizer solution for inhalation, a 0.125% w/w solution of palonosetron chloride is formulated in a pharmaceutically acceptable buffer for inhalation (0.85% sodium chloride, 0.062% sodium citrate, 0.019% citric acid in water). If tested through a Next Generation Impactor at 15 LPM, the fine particle fraction of palonosetron <4.7 microns is anticipated to be >20%.
smiles,measurement,value
O=C1c2cccc3c2[C@H](CCC3)CN1[C@@H]1CN2CCC1CC2 [palonosetron],fine particle fraction <4.7 microns,> 20%
